Results published in patent US8394786B2, “Quinazoline derivatives” (Janssen Pharmaceutica N.V., priority 2003, dated 2013).

Legend:
EGFR [1] = target: T1, EGFR (Homo sapiens, UniProt P00533); experiment: In vitro inhibition of EGFR, Flash Plate or glass-fiber filter technology (C2); format: biochemical; parameters: 0.5 μg EGFR-kinase domain/well; conditions: EGFR-kinase domain, 5.0 μM unlabeled ATP, read-out: Kinase activity.(C2): pIC50 (converted)
In short: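 Two radiometric formats were used, each with 5.0 μM unlabeled ATP, [33P]ATP, 0.5 μg EGFR kinase domain and compounds from 1·10^−10 to 1·10^−6 M. Glass-fiber filter: 25° C for 10 min, pH 7.5, Mn2+/Mg2+, acid-stopped, phosphorimager read. Streptavidin Flash Plate: biotinylated poly(GT), pH 8.0, 30° C for 60 min.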
Target sequence in this assay (P00533 712-979 limits assumed): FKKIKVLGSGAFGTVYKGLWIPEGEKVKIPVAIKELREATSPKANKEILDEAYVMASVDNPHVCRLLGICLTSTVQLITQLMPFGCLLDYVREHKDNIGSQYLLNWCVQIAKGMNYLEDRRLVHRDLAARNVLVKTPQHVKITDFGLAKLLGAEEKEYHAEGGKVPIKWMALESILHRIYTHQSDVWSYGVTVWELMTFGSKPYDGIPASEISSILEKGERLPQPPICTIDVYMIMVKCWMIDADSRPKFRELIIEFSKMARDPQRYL

EGFR [2] = target: T1, EGFR; experiment: ELISA assay of EGFR tyrosine kinase activity (C4); format: biochemical; conditions: poly(Glu, Tyr) coated plate, 5 μM ATP, room temperature 10 min
Procedure: The EGFR ELISA is generally described by Yang, E. B. et al., 2001, Biochimica et Biophysica Acta, 1550; 144.
For the determination of EGFR tyrosine kinase activity, 100 μl of 0.4 μg/ml poly(Glu, Tyr) in PBS was coated per well on a 96-well microplate at 37° C. overnight. […] After washing three times with PBS the plates were either used immediately or stored at 4° C. Prior to the determination of the EGFR tyrosine kinase activity, the coated plates were washed two times with PBS. Next, to each well 88 μl of an ATP dilution (50 mM Tris HCl pH 8.0, 10 mM MgCl2, 100 μM Na3VO4, 1 mM DTT, 5 μM ATP) and 2 μl with various concentrations of the compounds to be tested, were added. The EGFR tyrosine kinase-catalysed reaction was started by the addition of 10 μl of diluted EGFR (dilution→0.05 μg per well enzyme diluted in 50 mM TrisHCl pH 8.0+0.1% BSA). After incubation at room temperature for 10 min, the reaction was stopped by washing five times with PBS with 0.1% Tween 20. Subsequently […] of recombinant anti-phosphotyrosine horseradish peroxidase conjugate (1:2500) in BSA (10 mg/ml in PBS) was added. After incubation at room temperature for 1 h, the microplate was washed five times with PBS/Tween 20. After the microplate was incubated with 100 μl of TMB-ELISA (1-step Ultra TMB-ELISA, Pierce) until colour development, 100 μl of 0.5 M H2SO4 was added to stop the reaction, and it was read in a microplate reader at 450-655 nm.
Target sequence in this assay (P00533 25-1210): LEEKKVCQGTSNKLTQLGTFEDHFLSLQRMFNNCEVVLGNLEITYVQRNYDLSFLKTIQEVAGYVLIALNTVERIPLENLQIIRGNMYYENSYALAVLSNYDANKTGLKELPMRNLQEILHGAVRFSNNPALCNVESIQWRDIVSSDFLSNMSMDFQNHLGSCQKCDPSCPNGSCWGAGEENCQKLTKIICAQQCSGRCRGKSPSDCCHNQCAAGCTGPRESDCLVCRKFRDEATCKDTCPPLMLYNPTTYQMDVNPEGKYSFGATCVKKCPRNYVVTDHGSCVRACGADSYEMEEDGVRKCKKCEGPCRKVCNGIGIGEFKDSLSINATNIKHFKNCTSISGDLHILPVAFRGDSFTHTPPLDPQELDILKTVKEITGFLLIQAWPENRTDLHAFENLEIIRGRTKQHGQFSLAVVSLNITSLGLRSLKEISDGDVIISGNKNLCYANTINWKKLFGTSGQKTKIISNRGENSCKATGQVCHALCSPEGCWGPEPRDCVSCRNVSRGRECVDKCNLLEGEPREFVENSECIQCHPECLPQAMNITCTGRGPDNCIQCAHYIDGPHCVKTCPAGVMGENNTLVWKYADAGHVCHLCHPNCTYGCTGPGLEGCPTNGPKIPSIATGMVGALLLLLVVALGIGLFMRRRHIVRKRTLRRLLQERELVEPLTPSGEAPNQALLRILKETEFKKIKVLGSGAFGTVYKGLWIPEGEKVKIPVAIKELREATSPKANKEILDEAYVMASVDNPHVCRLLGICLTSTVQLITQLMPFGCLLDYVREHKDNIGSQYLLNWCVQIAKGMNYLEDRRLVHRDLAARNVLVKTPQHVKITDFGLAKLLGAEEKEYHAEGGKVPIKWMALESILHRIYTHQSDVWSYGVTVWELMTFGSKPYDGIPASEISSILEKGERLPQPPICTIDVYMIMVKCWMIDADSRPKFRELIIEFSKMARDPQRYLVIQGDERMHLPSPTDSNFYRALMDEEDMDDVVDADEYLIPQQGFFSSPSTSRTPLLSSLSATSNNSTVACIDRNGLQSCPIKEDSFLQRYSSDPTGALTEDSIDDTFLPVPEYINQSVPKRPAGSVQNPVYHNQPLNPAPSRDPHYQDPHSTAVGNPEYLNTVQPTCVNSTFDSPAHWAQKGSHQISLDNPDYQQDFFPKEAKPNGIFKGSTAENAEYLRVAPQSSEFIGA

A431 cells = experiment: Proliferation assay on the squamous carcinoma cell line A431 cells (C5); format: cell-based; conditions: Homo sapiens, A-431; 72 hours with compounds; MTT cell viability assay; read-out: A431 cell (C5): pIC50 (converted)
Procedure: The squamous carcinoma cell line (A431) was used in a cell proliferation assay, to assess the inhibitory effect of the compounds in whole cells.
In a first step the A431 cells were incubated for 24 hours in the presence of 10% FCS serum. In the second step the cells were incubated for 72 hours with the compounds to be tested at a final concentration of 100 ng/ml. The effect of the compounds on the cell proliferation was finally assessed in a standard MTT cell viability assay.

SKOV3 cells = experiment: Serum starved proliferation assay on the ovarian carcinoma SKOV3 cells (C3); format: cell-based; conditions: Homo sapiens, SK-OV-3, 72 h, EGF stimulated (100 ng/ml, 72 hours, serum free) or 72 hours with compounds; MTT cell viability assay; read-out: SKOV3 cell (C3): pIC50 (converted)
In short: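 MTT viability read-out in SKOV3 cells after a 24 h pre-incubation in 10% FCS, in one of two formats. EGF-stimulated version: serum-free compound exposure followed by 100 ng/ml EGF (final) for 72 h at 37 °C, 5% CO2. Otherwise, compound alone for 72 h.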

| IC50 (EGFR [1]) [nM] | IC50 (EGFR [2]) [nM] | IC50 (A431 cells) [nM] | IC50 (SKOV3 cells) [nM] | melting point [°C] | Compound |
| --- | --- | --- | --- | --- | --- |
| 31.6 |  | > 1000 | 1020 |  | COc1cc2ncnc3c2cc1OCCCCCNCc1cc(F)c(Cl)cc1N3 [Compound 30, 4,6-ethanediylidenepyrimido[4,5-b][6,1,12]benzoxadiazacyclopentadecine, 17-chloro-16-fluoro-8,9,10,11,12,13,14,19-octahydro-20-methoxy-] |
| 63.1 |  | > 3160 | > 10000 |  | COc1cc2ncnc3c2cc1OCCCCCCOc1ccc(-c2ccccc2)cc1N3 [Compound 34, 4,6-ethanediylidene-19H-pyrimido[4,5-b][6,13,1]benzodioxaazacyclopentadecine, 8,9,10,11,12,13-hexahydro-20-methoxy-17-phenyl-] |
| 794 |  | > 3160 | > 10000 |  | COc1cc2ncnc3c2cc1OCCCCCN(C(=O)OC(C)(C)C)Cc1cc(F)c(Cl)cc1N3 [Compound 29, 4,6-ethanediylidenepyrimido[4,5-b][6,1,12]benzoxadiazacyclopentadecine-13(8H)-carboxylic acid, 17-chloro-16-fluoro-9,10,11,12,14,19-hexahydro-20-methoxy-, 1,1-dimethylethyl ester] |
| > 10000 |  | > 3160 | > 10000 |  | COc1cc2ncnc3c2cc1OCCCCCCOc1cc(Cl)ccc1N3 [Compound 37, 4,6-ethanediylidene-19H-pyrimido[4,5-b][6,13,1]benzodioxaazacyclopentadecine, 16-chloro-8,9,10,11,12,13-hexahydro-20-methoxy-] |
| 25.1 |  | 1580 | 1740 |  | COc1cc2ncnc3c2cc1OCCN(CCN1CCOCC1)CCCOc1ccc(Cl)cc1N3 [Compound 33, 4,6-etheno-19H-pyrimido[5,4-k][1,8,5,13]benzodioxadiazacyclopentadecine, 17-chloro-8,9,10,11,12,13-hexahydro-20-methoxy-10-[2-(4-morpholinyl)ethyl]-] |
| 631 |  | > 3160 | > 10000 |  | COc1cc2ncnc3c2cc1OCCCCCCCCOc1cccc(c1)N3 [Compound 25, 22H-4,6-ethanediylidene-21,17-methenopyrimido[5,4-d][1,12,6]dioxaazacycloeicosine, 8,9,10,11,12,13,14,15-octahydro-24-methoxy-] |

More lines, now with the values behind:

| Compound | IC50 (EGFR [1]) [nM] | IC50 (EGFR [2]) [nM] | IC50 (A431 cells) [nM] | IC50 (SKOV3 cells) [nM] | melting point [°C] |
| --- | --- | --- | --- | --- | --- |
| COc1cc2ncnc3c2cc1OCCCCCCCc1ccc(Br)cc1N3 [Compound 21, 4,6-ethanediylidenepyrimido[4,5-b][6,1]benzoxaazacyclopentadecine, 17-bromo-8,9,10,11,12,13,14,19-octahydro-20-methoxy-] | 10 | 158 | > 3160 | 813 |  |
| Brc1ccc2c(c1)Nc1ncnc3cc(OCCCN4CCOCC4)c(cc13)OCCCCCCO2 [Compound 17, 4,6-ethanediylidene-19H-pyrimido[4,5-b][6,13,1]benzodioxaazacyclo-pentadecine, 17-bromo-8,9,10,11,12,13-hexahydro-20-[3-(4-morpholinyl)propoxy]-acetic acid] | 39.8 | 269 | 2510 | 8320 |  |
| COc1cc2ncnc3c2cc1OCCCCCCOc1ccc(C(=O)N2CCOCC2)cc1N3 [Compound 14, morpholine, 4-[(8,9,10,11,12,13-hexahydro-20-methoxy-4,6-ethane-diylidene-19H-pyrimido[4,5-b][6,13,1]benzodioxaazacyclopentadecin-17-yl)carbonyl]-] | > 10000 | > 1000 | > 3160 | > 10000 |  |
| COc1cc2ncnc3c2cc1OCCCCCN(C)Cc1ccc(Br)cc1N3 [Compound 22, 4,6-ethanediylidenepyrimido[4,5-b][6,1,12]benzoxadiazacyclo-pentadecine, 17-bromo-8,9,10,11,12,13,14,19-octahydro-20-methoxy-13-methyl-] | 15.8 | 38.4 | 1580 | 257 |  |
| Brc1ccc2c(c1)Nc1ncnc3ccc(cc13)OCCCCCCO2 [Compound 18, 4,6-ethanediylidene-19H-pyrimido[4,5-b][6,13,1]benzodioxaazacyclo-pentadecine, 17-bromo-8,9,10,11,12,13-hexahydro-] | 79.4 | > 1000 |  | > 10000 |  |
| COc1cc2ncnc3c2cc1OCCCCCCOc1ccc(C(=O)O)cc1N3 [Compound 11, 4,6-ethanediylidene-19H-pyrimido[4,5-b][6,13,1]benzodioxaazacyclo-pentadecine-17-carboxylic acid, 8,9,10,11,12,13-hexahydro-20-methoxy-] | > 10000 | > 1000 | > 3160 | > 10000 |  |
| COC(=O)c1ccc2c(c1)Nc1ncnc3cc(OC)c(cc13)OCCCCCCO2 [Compound 10, 4,6-ethanediylidene-19H-pyrimido[4,5-b][6,13,1]benzodioxaazacyclo-pentadecine-17-carboxylic acid, 8,9,10,11,12,13-hexahydro-20-methoxy-, methyl ester] | 50.1 | > 1000 | > 3160 | > 10000 |  |
| Oc1cc2ncnc3c2cc1OCCCCCCOc1ccc(Br)cc1N3 [Compound 16, 4,6-ethanediylidene-19H-pyrimido[4,5-b][6,13,1]benzodioxaazacyclo-pentadecin-20-ol, 17-bromo-8,9,10,11,12,13-hexahydro-] | 2510 | > 1000 |  |  |  |
| COc1cc2ncnc3c2cc1OCCCCCCCCON=Cc1ccc(Cl)cc1N3 [Compound 24, 4,6-ethanediylidene-23H-pyrimido[4,5-b][6,15,1,16]benzo-dioxadiazacyclononadecine, 21-chloro-8,9,10,11,12,13,14,15-octahydro-24-methoxy-] | 20 |  | > 3160 | 3160 | 127.2 to 132.2 |
| COc1cc2ncnc3c2cc1OCCCCCCOc1ccc(C(=O)N2CCCC2)cc1N3 [Compound 12, pyrrolidine, 1-[(8,9,10,11,12,13-hexahydro-20-methoxy-4,6-ethane-diylidene-19H-pyrimido[4,5-b][6,13,1]benzodioxaazacyclopentadecin-17-yl)carbonyl]-] | > 10000 | > 1000 | > 3160 | > 10000 |  |
| COc1cc2ncnc3c2cc1OCCCCCCOc1ccc(C#N)cc1N3 [Compound 13, 4,6-ethanediylidene-19H-pyrimido[4,5-b][6,13,1]benzodioxaazacyclo-pentadecine-17-carbonitrile, 8,9,10,11,12,13-hexahydro-20-methoxy-] | 316 | > 1000 | > 3160 | > 10000 |  |
| COc1cc2ncnc3c2cc1OCCCCCNCc1ccc(Br)cc1N3 [Compound 20, 4,6-ethanediylidenepyrimido[4,5-b][6,1,12]benzoxadiazacyclo-pentadecine, 17-bromo-8,9,10,11,12,13,14,19-octahydro-20-methoxy-] | 25.1 |  | 1260 | 229 |  |
